Measurements reported in US6723897B2, “Methods for controlling gibberellin levels” (Monsanto Technology, LLC, priority 1998, dated 2004).

Tests used:
[1] = tested on: constitutively GA-deficient transgenic dwarf soybean line 719; test: Experiment IV field test, seed imbibition, compacted soil; type: in vivo, Glycine max; details: for field result on line 719 in words: over the rates tested (0.0025-0.25 mg/ml); for No. of Dwarfs Not Rescued / Total Plants: imbibed 8 hours; for Total Plants: 25 seeds planted; for % of Dwarfs Rescued: relative to 8.5 true dwarfs per plot
Text: The objective of these experiments is to determine if there is a greenhouse to field translation of results with selected GA compounds with respect to rescue of constitutively GA-deficient transgenic dwarf soybeans and elongation of wild-type plants. […] For the first field trial, the solutions previously used for the second greenhouse test, and stored in the freezer, are employed. […] For comparison, freshly prepared solutions of GA3 are also employed. The compounds tested included kaurenoic acid, fresh GA3, stored GA3, GA3-3-acetate, GA5, GA9, and GA12. […] Seeds of line […] are imbibed for 8 hours. Untreated dry seeds served as controls. After imbibition, the remaining solutions are returned to the freezer. Seeds are kept on the benchtop at room temperature overnight. […] Untreated dry seeds served as controls. Following planting line 719, all plots (both […] and line 719) are compacted by driving an all-terrain vehicle over the planted rows twice, and watered. All GA solutions are discarded. The results are shown in Table 15 for constitutively GA-deficient transgenic dwarf line 719 only as insufficient […] germinated to make any useful observations. Observations included number of plants that germinated, number rescued, and visual observations. Two points should be noted concerning the data in Table 15. […] Next, the number of dwarfs not rescued in any treatment is subtracted from 8.5.

[2] = tested on: wild-type soybean line A3237; test: Experiment I greenhouse test, seed imbibition, wild-type soybean; details: 0.25 mg/ml; seeds imbibed 5 hours
Description: Compounds are first prepared as 25 mg/ml solutions in ethanol as described above, and then diluted into 40 ml of water to prepare the final 0.25 mg/ml treatment solutions. Visual observations on solubilities (milky, clear, etc.) of the treatment solutions are noted. The treatment solutions are divided into two 20 ml portions, each in 50 ml plastic centrifuge tubes. In addition to treating seeds with solutions containing the test compounds, untreated seeds and seeds imbibed in ethanol-water solution (300 μl ethanol in 30 mls of water) are also included in this experiment as controls. […]
After imbibition, seeds are removed from the test tubes, placed on wax paper to dry, and planted in bread pans containing farm soil amended with fertilizer at 20 seeds/pan. Seeds are covered with 0.5″ of vermiculite. Pans are transferred to the greenhouse, which had day/night temperatures of 86/68° F. (30/20° C.), and subirrigated. Illumination is at a light intensity of 300-400 μmolm^−2s^−1 photosynthetic photon flux; 16 hours light/8 hours dark. Subsequent waterings are also through sub-irrigation until the test is terminated three weeks later. Observations included the number of dwarf, intermediate, and tall plants; plant height; uniformity of rescue; and any visual effects.

[3] = tested on: constitutively GA-deficient transgenic dwarf soybean line 719; test: Fifth and sixth field tests, emergence after seed imbibition; type: in vivo, Glycine max; details: for Total Emerged: 50 seeds imbibed 5 hours
Description: Fresh stock solutions of compounds are prepared for this test. Kaurenoic acid is tested at 0.025 and 0.25 mg/ml; GA3 is tested at 0.025, 0.25, and 0.5 mg/ml; GA3-3-acetate at 0.025 and 0.25 mg/ml; GA5 at 0.025 and 0.25 mg/ml; GA9 at 0.025 and 0.04 mg/ml; and GA12 at 0.025 and 0.25 mg/ml. Stock solutions are prepared in ethanol in 50 ml plastic centrifuge tubes; deionized water is then added to make up the volumes to 30 ml. The final solutions contained 300 μl ethanol in 30 mls. […] Seeds are imbibed for 6 hours, and planted 1″ deep in a single row in moist to wet soil. They are then covered with dry soil, and the row is compacted twice with an all-terrain vehicle. Untreated dry seeds served as controls. The GA solutions are placed on dry ice until reuse the next day.
The next day, additional seeds of constitutive transgenic dwarf line 719 (50 seeds/treatment) are imbibed in the remaining treatment solutions for 5 hours, and planted in moist soil. The rows are compacted twice.

[4] = tested on: GA-deficient transgenic soybean line 719 (R5); test: Hilum treatment of soybean seeds, seedling growth and development, GA-deficient soybean; type: in vivo, Glycine max; set-up: key to Emergence timing / Hypocotyl length (6 DAP) / 1st internode length (12 DAP) / 3rd internode length (20 DAP) / 2nd internode length (12 DAP): pos: emergence faster/stem segment longer than controls; 0: emergence timing/stem segment length similar to controls; neg: emergence slower/stem segment shorter than controls; details: for 1st internode length (12 DAP) / Emergence timing / Hypocotyl length (6 DAP): single rate per compound 8.3-16.5 μg/seed
Description: (§1) In the previous experiments, the effect of various GA compounds on transgenic, GA-deficient and wild-type soybean is evaluated by treating seeds with these compounds via imbibition. Several of these compounds are not completely soluble in water, which limited the interpretation of their utility in rescuing GA-deficient dwarf plants. The purpose of this experiment is to reevaluate selected, previously tested compounds, and additional compounds, by introducing them to the seed via the hilum. As shown by the results presented below, direct application of small quantities of GA compounds dissolved in an organic solvent to the hilum is an effective method of treating soybean seeds. As in the previously described experiments, comparison is made between activity on GA-deficient soybean seedlings and normal (wild-type) seedlings. […] soybean seeds are supplied by Asgrow Seed Company (Des Moines, Iowa). Seed of GA-deficient transgenic soybean line 719 is created by transformation of […] soybean with pMON29801 (FMV/antisense CPScc). Fifth generation seed (R5) is used for these experiments. […] When multiple droplets are applied, each 1 μl droplet is allowed to dry before subsequent droplets are added. Ethanol minus compound is used a treatment control. […] (29° C.) and 75° F. (24° C.), respectively. Emergence timing is measured by counting the number of emerged seedlings at different times after planting. Emergence is defined as the presence of cotyledons raised to soil level or above. […] To assess the ability of a seed treatment to deliver biological activity beyond the first internode, measurements are taken on selected treatments after prolonged growth and development.

[5] = tested on: wild-type A3237 soybean; test: Hilum treatment of soybean seeds, seedling growth and development, wild-type soybean; type: in vivo, Glycine max; set-up: key to Emergence timing / Hypocotyl length (6 DAP) / 1st internode length (12 DAP) / 3rd internode length (20 DAP): pos: emergence faster/stem segment longer than controls; 0: emergence timing/stem segment length similar to controls; neg: emergence slower/stem segment shorter than controls; details: for 1st internode length (12 DAP) / Emergence timing / Hypocotyl length (6 DAP): single rate per compound 8.3-16.5 μg/seed
Description: as §1

[6] = L719, hilum treatment, rate response
[7] = L719, hilum treatment, single rate per compound 9.7-16.5 μg/seed

| SMILES | field result on line 719 in words [1] | No. of Dwarfs Not Rescued ([1]; stored solution 0.0025 mg/ml) | Total Plants ([1]; stored solution 0.0025 mg/ml) | % of Dwarfs Rescued ([1]; stored solution 0.0025 mg/ml) [%] | No. of Dwarfs Not Rescued ([1]; stored solution 0.025 mg/ml) | Total Plants ([1]; stored solution 0.025 mg/ml) | % of Dwarfs Rescued ([1]; stored solution 0.025 mg/ml) [%] | No. of Dwarfs Not Rescued ([1]; stored solution 0.25 mg/ml) | Total Plants ([1]; stored solution 0.25 mg/ml) | % of Dwarfs Rescued ([1]; stored solution 0.25 mg/ml) [%] | Observation on Wild-Type Line A3237 [2] | Total Emerged ([3]; 0.025 mg/ml) | Total Emerged ([3]; 0.25 mg/ml) | 1st internode length (12 DAP) ([4]; L719, hilum treatment) | Emergence timing ([4]; L719, hilum treatment) | Hypocotyl length (6 DAP) ([4]; L719, hilum treatment) | 1st internode length (12 DAP) [5] | Emergence timing [5] | Hypocotyl length (6 DAP) [5] | Visual Observations on Transgenic Line 719 ([1]; stored solution 0.25 mg/ml) | other results |
| --- | --- | --- | --- | --- | --- | --- | --- | --- | --- | --- | --- | --- | --- | --- | --- | --- | --- | --- | --- | --- | --- |
| C=C1C[C@]23C[C@H]1CC[C@H]2[C@]1(C)CCC[C@@](C)(C(=O)O)[C@H]1[C@@H]3C(=O)O [GA12] | good emergence | 5 | 20 | 41.2 | 4 | 22 | 52.9 | 0 | 20 | 100 | −1 | 28 | 9 | 0 | 0 | neg | 0 | neg | neg |  | effect on emergence timing and hypocotyl length ([4]; single rate, hilum): inhibited emergence timing and hypocotyl length |
| C=C1C[C@]23C[C@@]1(O)CC[C@H]2[C@@]12C=C[C@H](O)[C@@](C)(C(=O)O1)[C@H]2[C@@H]3C(=O)O [GA3, gibberellic acid] | poor emergence at all rates | 0 | 14 | 100 | 0 | 9 | 100 | 0 | 7 | 100 | 3 | 15 | 9 | pos | pos | pos | 0 | pos | pos | Extremely elongated plants | No. of Dwarfs Not Rescued ([1]; fresh solution 0.0025 mg/ml): 0; Total Plants ([1]; fresh solution 0.0025 mg/ml): 13; % of Dwarfs Rescued ([1]; fresh solution 0.0025 mg/ml): 100%; No. of Dwarfs Not Rescued ([1]; fresh solution 0.025 mg/ml): 1; Total Plants ([1]; fresh solution 0.025 mg/ml): 13; % of Dwarfs Rescued ([1]; fresh solution 0.025 mg/ml): 88.2%; No. of Dwarfs Not Rescued ([1]; fresh solution 0.25 mg/ml): 0; Total Plants ([1]; fresh solution 0.25 mg/ml): 1; % of Dwarfs Rescued ([1]; fresh solution 0.25 mg/ml): 100%; Visual Observations on Transgenic Line 719 ([1]; stored solution 0.025 mg/ml): Extremely elongated plants; Total Emerged ([3]; 0.5 mg/ml): 1; Lowest rate where biological activity is observed, 1st internode length (10 DAP) [4, 6]: 10 μg/seed; Lowest rate where biological activity is observed, emergence timing [4, 6]: 0.1 μg/seed; Lowest rate where biological activity is observed, hypocotyl length (5 DAP) [4, 6]: 0.1 μg/seed; 2nd internode length (12 DAP) [4, 7]: 0; 3rd internode length (20 DAP) [4, 7]: 0; stem elongation past the first internode ([4]; initial seed dose approximately 10 μg/seed, hilum): not active beyond the first internode; Lowest rate where biological activity is observed, 1st internode length (10 DAP) ([5]; rate response): 1 μg/seed; Lowest rate where biological activity is observed, emergence timing ([5]; rate response): 0.1 μg/seed; Lowest rate where biological activity is observed, hypocotyl length (5 DAP) ([5]; rate response): 0.1 μg/seed |
| C=C1C[C@]23C[C@@]1(O)CC[C@H]2[C@@]12C=C[C@H](OC(C)=O)[C@@](C)(C(=O)O1)[C@H]2[C@@H]3C(=O)O [GA3-3-acetate] | excessive elongation, and no uniformity in plant height | 0 | 21 | 100 | 0 | 1 | 100 | 0 | 3 | 100 | 3 | 2 | 1 | pos | pos | pos | 0 | pos | pos | Extremely elongated plants | Visual Observations on Transgenic Line 719 ([3]; 0.25 mg/ml): Overelongation |
